Test results taken from paper PMC2885048 (Molecular cancer therapeutics, 2010).

Legend:
muIDO1 = muIDO1 (Mus musculus, UniProt P28776); assay: kynurenine assay in 293-T-REx cells expressing muIDO1; format: cell-based
muIDO2 = molecular target: T1, muIDO2 (Mus musculus, UniProt Q8R0V5); assay: kynurenine assay in 293-T-REx cells expressing muIDO2; format: cell-based
T1 sequence (Q8R0V5 1-405): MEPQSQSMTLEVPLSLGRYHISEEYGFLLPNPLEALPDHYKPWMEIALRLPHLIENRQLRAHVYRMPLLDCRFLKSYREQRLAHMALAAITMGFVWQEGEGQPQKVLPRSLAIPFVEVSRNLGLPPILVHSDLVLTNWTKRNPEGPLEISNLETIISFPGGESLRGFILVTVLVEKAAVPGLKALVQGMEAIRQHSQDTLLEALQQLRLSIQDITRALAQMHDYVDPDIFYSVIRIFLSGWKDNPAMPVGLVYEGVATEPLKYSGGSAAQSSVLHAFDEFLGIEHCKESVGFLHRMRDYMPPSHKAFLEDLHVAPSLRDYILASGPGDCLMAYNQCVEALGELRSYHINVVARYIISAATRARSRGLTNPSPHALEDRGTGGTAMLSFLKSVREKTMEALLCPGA

Chain of muIDO1 (P28776 whole entry): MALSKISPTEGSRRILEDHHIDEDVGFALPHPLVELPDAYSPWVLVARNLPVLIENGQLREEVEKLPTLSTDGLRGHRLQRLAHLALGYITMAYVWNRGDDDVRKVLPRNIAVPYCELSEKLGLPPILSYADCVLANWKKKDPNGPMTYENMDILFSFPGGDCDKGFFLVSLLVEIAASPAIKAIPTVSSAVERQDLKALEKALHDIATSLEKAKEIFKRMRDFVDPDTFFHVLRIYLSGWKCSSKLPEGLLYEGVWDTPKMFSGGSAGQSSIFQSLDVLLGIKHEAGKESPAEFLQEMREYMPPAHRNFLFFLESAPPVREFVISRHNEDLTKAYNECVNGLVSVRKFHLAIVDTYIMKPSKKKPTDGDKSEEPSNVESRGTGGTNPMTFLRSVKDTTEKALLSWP

Structure (SMILES): C=CC1=C(C)C2=Cc3c(C=C)c(C)c4[n]3[Zn][n]3c(c(C)c(CCC(=O)O)c3=CC3=NC(=C4)C(C)=C3CCC(=O)O)=CC1=N2 [ZnPP]
- IC50 (muIDO1): 3.3 µM
- IC50 (muIDO2): 7.1 µM
